These are literature values, as cited in patent publication US12201732B2, “Transdermal patches for hangover minimization and/or recocery, and/or sleep improvement” (GameChanger Patch Co., priority 2020, dated 2025).

The structures appear in SMILES notation.

For data set [1] the following is noted: recent study.
The conditions of data set [2]: oral supplementation.

On to `N[C@@H](CS)C(=O)O` [L-cysteine], for which, in data set [1], the effect on hangover entry was “mitigate hangover effects”.

Consider `N[C@@H](CCC(=O)N[C@@H](CS)C(=O)NCC(=O)O)C(=O)O` [glutathione], for which the “share metabolized by the human stomach in the first pass” value in data set [2] is reported as at least 90%.
